Patent US20250074897A1, “PYRIDAZINONES AS PARP7 INHIBITORS” (Ribon Therapeutics, Inc., priority 2019, published 2025)

Each molecule was assayed against T1, PARP7 (TIPARP) (Homo sapiens, UniProt Q7Z3E1) (assay: Enzymatic assay for inhibition of PARP7: TR-FRET displacement of biotinylated Probe A from the TIPARP active site). Settings: 6 nM TIPARP, 2 nM Probe A, 25° C., 30 min incubation with test compound.
T1 sequence (Q7Z3E1 1-657): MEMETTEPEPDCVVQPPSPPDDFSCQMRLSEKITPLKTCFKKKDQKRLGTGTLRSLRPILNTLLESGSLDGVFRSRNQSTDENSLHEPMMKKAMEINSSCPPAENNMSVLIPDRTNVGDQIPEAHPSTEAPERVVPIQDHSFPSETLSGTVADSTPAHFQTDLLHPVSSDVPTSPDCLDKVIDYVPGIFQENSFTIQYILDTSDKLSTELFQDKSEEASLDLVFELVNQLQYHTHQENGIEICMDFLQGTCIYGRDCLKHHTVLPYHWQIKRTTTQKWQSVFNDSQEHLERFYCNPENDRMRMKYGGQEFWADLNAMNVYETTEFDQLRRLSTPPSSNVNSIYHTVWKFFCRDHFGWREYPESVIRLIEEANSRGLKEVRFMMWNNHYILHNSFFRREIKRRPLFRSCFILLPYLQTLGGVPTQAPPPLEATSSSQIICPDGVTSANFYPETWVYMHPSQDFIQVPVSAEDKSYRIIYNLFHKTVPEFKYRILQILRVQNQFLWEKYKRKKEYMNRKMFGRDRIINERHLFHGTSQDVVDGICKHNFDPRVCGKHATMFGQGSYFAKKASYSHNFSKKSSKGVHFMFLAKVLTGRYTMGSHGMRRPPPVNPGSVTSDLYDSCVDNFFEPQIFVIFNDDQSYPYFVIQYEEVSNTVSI
Assay type: binding
Procedure: Enzymatic Assay for Inhibition of PARP7
Displacement of Probe A, a biotinylated probe binding to the TIPARP active site, was measured using a time-resolved fluorescence energy transfer (TR-FRET) assay. 20 nL of a dose response curve of each test compound was spotted in black 384-well polystyrene proxiplates (Perkin Elmer) using a Mosquito (TTP Labtech). Reactions were performed in a 8 μL volume by adding 6 μL of TIPARP and Probe A in assay buffer (20 mM HEPES pH=8, 100 mM NaCl, 0.1% bovine serum albumin, 2 mM DTT and 0.002% Tween20), incubating with test compound at 25° C. for 30 min, then adding 2 μL of ULight-anti 6xHis and LANCE Eu-W1024 labeled streptavidin (Perkin Elmer). The final concentrations of TIPARP and Probe A were 6 nM and 2 nM, respectively. The final concentration of ULight-anti 6xHis and LANCE Eu-W1024 labeled streptavidin were 4 nM and 0.25 nM, respectively. Reactions were incubated at 25° C. for an additional 30 min, then read on an Envision platereader equipped with a LANCE/DELFIA top mirror (Perkin Elmer) using excitation of 320 nm and emission of 615 nm and […] with a 90 μs delay. The ratio of the 665/615 nm emission were calculated for each well to determine the amount of complex of TIPARP and Probe A in each well. Control wells containing a negative control of 0.25% DMSO vehicle or a positive control of 100 μM 5-(5-(piperidin-4-yloxy)isoindolin-2-yl)-4-(trifluoromethyl)pyridazin-3(2H)-one were used to calculate the % inhibition as described below:
where TRFempd is the TR-FRET ratio from the compound treated well, TRFmin is the TR-FRET ratio from the 5-(5-(piperidin-4-yloxy)isoindolin-2-yl)-4-(trifluoromethyl)pyridazin-3(2H)-one-treated positive control well and TRFmax is the TR-FRET ratio from the DMSO-treated negative control well.
The % inhibition values were plotted as a function of compound concentration and the following 4-parameter fit was applied to derive the IC50 values:
where top and bottom are normally allowed to float, but may be fixed at 100 or 0 respectively in a 3-parameter fit. The Hill Coefficient is normally allowed to float but may also be fixed at 1 in a 3-parameter fit. Y is the % inhibition and X is the compound concentration.

IC50, < 100 nM:
COC[C@@H](COCC(O)C(=O)N1CCN(c2ncc(C(F)(F)F)cn2)CC1)Nc1cn[nH]c(=O)c1C(F)(F)F (stereo partly drawn) [Example 14, 5-(((2S)-1-(2-hydroxy-3-oxo-3-(4-(5-(trifluoromethyl)pyrimidin-2-yl)piperazin-1-yl)propoxy)-3-methoxypropan-2-yl)amino)-4-(trifluoromethyl)pyridazin-3(2H)-one]
CC[C@@H](COCC(O)C(=O)N1CCN(c2ncc(C(F)(F)F)cn2)CC1)Nc1cn[nH]c(=O)c1C(F)(F)F (stereo partly drawn) [Example 15, 5-(((2S)-1-(2-hydroxy-3-oxo-3-(4-(5-(trifluoromethyl)pyrimidin-2-yl)piperazin-1-yl)propoxy)butan-2-yl)amino)-4-(trifluoromethyl)pyridazin-3(2H)-one]
O=C([C@H](O)COC[C@H](COC(F)(F)F)Nc1cn[nH]c(=O)c1C(F)(F)F)N1CCN(c2ncc(C(F)(F)F)cn2)CC1 [Example 16A, 5-(((R)-1-((R)-2-hydroxy-3-oxo-3-(4-(5-(trifluoromethyl)pyrimidin-2-yl)piperazin-1-yl)propoxy)-3-(trifluoromethoxy)propan-2-yl)amino)-4-(trifluoromethyl)pyridazin-3(2H)-one]
O=C([C@@H](O)COC[C@H](COC(F)(F)F)Nc1cn[nH]c(=O)c1C(F)(F)F)N1CCN(c2ncc(C(F)(F)F)cn2)CC1 [Example 16B, 5-(((R)-1-((S)-2-hydroxy-3-oxo-3-(4-(5-(trifluoromethyl)pyrimidin-2-yl)piperazin-1-yl)propoxy)-3-(trifluoromethoxy)propan-2-yl)amino)-4-(trifluoromethyl)pyridazin-3(2H)-one]
O=C(C(O)COC[C@@H]1CCN1c1cn[nH]c(=O)c1C(F)(F)F)N1CCN(c2ncc(C(F)(F)F)cn2)CC1 (stereo partly drawn) [Example 18, 5-((2S)-2-((2-hydroxy-3-oxo-3-(4-(5-(trifluoromethyl)pyrimidin-2-yl)piperazin-1-yl)propoxy)methyl)azetidin-1-yl)-4-(trifluoromethyl)pyridazin-3(2H)-one]
